Earlier results on 1 molecule are cited in patent publication US20080247957A1, “Advanced drug delivery strategy and platform for minimally-invasive treatment of liver cancer” (Drexel University, priority 2007, published 2008).

The conditions of the series: in the body.

Regarding `O=c1[nH]cc(F)c(=O)[nH]1` [5 fluorouracil], the half life result is “less than 5 min”.
